The values below come from publication PMC7916669, “Chemical Constituent Profiling of Phyllostachys heterocycla var. Pubescens with Selective Cytotoxic Polar Fraction through EGFR Inhibition in HepG2 Cells” (Molecules, 2021).

The target in the assay is T1, EGFR (epidermal growth factor receptor tyrosine kinase) (Homo sapiens, UniProt P00533).
T1 construct: EGFR cytoplasmic domain (EGFR-CD, amino acids 645–1186), (His)6-tagged
Nature of the assay: EGFR-TK autophosphorylation assay, DELFIA/time-resolved fluorometry, recombinant enzyme. In kind it is biochemical. The note with it: read-out: In Vitro EGFR Activity(nM) *.

T1 sequence (P00533 669-1210): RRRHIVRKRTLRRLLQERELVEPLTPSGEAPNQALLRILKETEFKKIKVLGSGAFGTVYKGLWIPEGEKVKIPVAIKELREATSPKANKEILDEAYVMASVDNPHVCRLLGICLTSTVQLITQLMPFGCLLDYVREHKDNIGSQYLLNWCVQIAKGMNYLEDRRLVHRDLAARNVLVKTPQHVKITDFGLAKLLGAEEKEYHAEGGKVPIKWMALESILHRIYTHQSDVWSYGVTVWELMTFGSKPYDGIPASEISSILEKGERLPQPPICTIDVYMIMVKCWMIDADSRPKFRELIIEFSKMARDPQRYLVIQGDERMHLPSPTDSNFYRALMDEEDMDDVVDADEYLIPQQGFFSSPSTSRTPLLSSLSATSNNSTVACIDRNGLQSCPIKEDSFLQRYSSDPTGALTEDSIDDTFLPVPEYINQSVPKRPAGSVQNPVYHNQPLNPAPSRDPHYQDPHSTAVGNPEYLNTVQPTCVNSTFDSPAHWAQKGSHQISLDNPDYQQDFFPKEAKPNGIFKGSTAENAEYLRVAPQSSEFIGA

For the compound `COC(=O)/C=C/c1ccc(O)cc1OC` [compound 1, 7-hydroxy, 5-methoxy, methyl cinnamate], the IC50 stood at 98.6 nM.
